Experimental data: patent US10047105B2, “Gyrase inhibitors” (Merck Sharp & Dohme Corp., priority 2009, dated 2018)
Converted amounts (≈) assume the structure as drawn.

Assays:
S. pneumoniae ATCC 51916 = assay: MIC, S. pneumoniae; assay type: cell-based; settings: S. pneumoniae
S. aureus ATCC 13709 = assay: MIC, antibacterial potency, S. aureus; assay type: cell-based; settings: S. aureus

Compound | MIC Spn52 (S. pneumoniae ATCC 51916) | MIC, SA (S. aureus ATCC 13709)
CCc1[nH]c2nc(Sc3cnc4nccnc4c3)nc(N3CC(CNC(=O)[C@@H]4CCC(=O)N4)C3)c2c1Cl [700,520] | 16 µg/mL (≈ 29.7 µM) | 8 µg/mL (≈ 14.9 µM)
CCc1[nH]c2nc(Sc3cnc4nccnc4c3)nc(N3CC(CNC(=O)C4CCC(O)CC4)C3)c2c1Cl (stereo not shown) [700,521] | 2 µg/mL (≈ 3.62 µM) | 1 µg/mL (≈ 1.81 µM)
CCc1[nH]c2nc(Sc3cnc4nccnc4c3)nc(N3CC(CNC(=O)C4CCCO4)C3)c2c1Cl (stereo not shown) [700,522] | 2 µg/mL (≈ 3.81 µM) | ≤ 0.5 µg/mL
CCc1[nH]c2nc(Sc3cnc4nccnc4c3)nc(N3CC(CNC(=O)COCCOCCOC)C3)c2c1Cl [700,523] | 4 µg/mL (≈ 6.81 µM) | 2 µg/mL (≈ 3.41 µM)
CCc1[nH]c2nc(Sc3cnc4nccnc4c3)nc(N3CC(CNC(=O)c4cn(C)nc4C(F)(F)F)C3)c2c1Cl [700,524] | ≤ 0.5 µg/mL | ≤ 0.5 µg/mL
CCc1[nH]c2nc(Nc3cnc4c(c3)nnn4C(C)C)nc(N3CC(O)C3)c2c1Cl.O=C(O)C(F)(F)F [700,525] | > 64 µg/mL | > 64 µg/mL
CCc1[nH]c2nc(Nc3cnc4c(c3)nnn4C(C)C)nc(N3CC(NC(=O)O)C3)c2c1Cl.O=C(O)C(F)(F)F [700,526] | > 64 µg/mL | 8 µg/mL
CCc1[nH]c2nc(Nc3cnc4c(c3)nnn4C(C)C)nc(N3CC(N)C3)c2c1Cl.O=C(O)C(F)(F)F.O=C(O)C(F)(F)F [700,527] | 8 µg/mL | 16 µg/mL
CCc1[nH]c2nc(Nc3cnc4c(c3)nnn4C(C)C)nc(N3CC[C@@H](N(C)C)C3)c2c1Cl.O=C(O)C(F)(F)F.O=C(O)C(F)(F)F [700,528] | 8 µg/mL | 8 µg/mL
CCc1[nH]c2nc(Nc3ccc4c(N)nc(C)nc4c3)nc(N3CC(N)C3)c2c1Cl.O=C(O)C(F)(F)F.O=C(O)C(F)(F)F [700,531] | 4 µg/mL | 8 µg/mL
CCc1[nH]c2nc(Nc3cnc4c(c3)nnn4C(C)C)nc(N(C)CCO)c2c1Cl.O=C(O)C(F)(F)F [700,534] | > 32 µg/mL | 2 µg/mL
CCc1[nH]c2nc(Nc3cnc4c(c3)nnn4C(C)C)nc(OC)c2c1Br.O=C(O)C(F)(F)F [700,535] | 4 µg/mL | ≤ 0.5 µg/mL
CCc1nc2c(N3CC(N)C3)nc(Sc3cnc4c(N)nc(C)nc4c3)nc2[nH]1 [700,538] | > 16 µg/mL | > 16 µg/mL
CCc1[nH]c2nc(Sc3cnc4nccnc4c3)nc(N3CC(NCc4cccnc4)C3)c2c1Cl [700,539] | 1 µg/mL (≈ 1.98 µM) | ≤ 0.5 µg/mL
CCc1[nH]c2nc(Sc3cnc4nccnc4c3)nc(N3CCC(N)C3)c2c1Cl (stereo not shown) [700,540] | 2 µg/mL (≈ 4.68 µM) | 1 µg/mL (≈ 2.34 µM)
CCc1[nH]c2nc(Sc3cnc4nccnc4c3)nc(N3CCC(N)CC3)c2c1Cl [700,541] | 4 µg/mL (≈ 9.07 µM) | 4 µg/mL (≈ 9.07 µM)
CCc1[nH]c2nc(Sc3cnc4nccnc4c3)nc(-n3ccnc3)c2c1Cl [700,542] | 8 µg/mL (≈ 19.6 µM) | 2 µg/mL (≈ 4.89 µM)
CCOC(=O)Cc1nc(N2CCC(O)C2)c2c(Cl)c(CC)[nH]c2n1 (stereo not shown) [700,544] | > 64 µg/mL | > 64 µg/mL
CCc1[nH]c2nc(Sc3cc(=O)n(C)c(=O)[nH]3)nc(N3CC(N)C3)c2c1Br.O=C(O)C(F)(F)F [700,545] | 4 µg/mL | 2 µg/mL
CCc1[nH]c2nc(Sc3cnc4nccnc4c3)nc(N(C)Cc3cccnc3)c2c1Cl.O=C(O)C(F)(F)F [700,546] | 16 µg/mL | 4 µg/mL
CCc1[nH]c2nc(Sc3cnc4nccnc4c3)nc(N3CCC4(CCCN4)C3)c2c1Cl (stereo not shown) [700,547] | 4 µg/mL (≈ 8.57 µM) | 4 µg/mL (≈ 8.57 µM)

Compound | MIC Spn52 (S. pneumoniae ATCC 51916) | MIC, SA (S. aureus ATCC 13709)
CCc1[nH]c2nc(Sc3cnc4nccnc4c3)nc(N3CC4CNC4C3)c2c1Cl.O=C(O)C(F)(F)F (stereo not shown) [700,548, 7-(4-(3,6-diazabicyclo[3.2.0]heptan-3-yl)-5-chloro-6-ethyl-7H-pyrrolo[2,3-d]pyrimidin-2-ylthio)pyrido[3,2-b]pyrazine] | 2 µg/mL | ≤ 0.5 µg/mL
CCc1[nH]c2nc(Sc3cnc4nccnc4c3)nc(N3CC[C@H](NC)C3)c2c1Cl.O=C(O)C(F)(F)F [700,549] | 4 µg/mL | 4 µg/mL
CCc1[nH]c2nc(Nc3cnc4c(c3)nnn4C(C)C)nc(OC)c2c1Cl.O=C(O)C(F)(F)F [700,550] | 8 µg/mL | 1 µg/mL
CCc1[nH]c2nc(Oc3cncnc3)nc(Oc3cncnc3)c2c1Cl.O=C(O)C(F)(F)F [700,551] | 4 µg/mL | 2 µg/mL
CCc1[nH]c2nc(Oc3cncnc3)nc(Oc3cncnc3)c2c1Br.O=C(O)C(F)(F)F [700,552] | 2 µg/mL | ≤ 0.5 µg/mL
CCc1[nH]c2nc(Sc3cnc4nccnc4c3)nc(OS(=O)(=O)c3ccc(C)cc3)c2c1Cl [700,558] | > 64 µg/mL | 8 µg/mL (≈ 15.6 µM)
CCc1[nH]c2nc(Sc3nc(C(=O)O)c(Cl)s3)nc(N3CCC(N)C3)c2c1Cl (stereo not shown) [700,559] | > 64 µg/mL | > 64 µg/mL
CCc1[nH]c2nc(Sc3cccnc3)nc(N3CC(N)C3)c2c1Cl [700,560] | 32 µg/mL (≈ 88.7 µM) | 8 µg/mL (≈ 22.2 µM)
CCc1[nH]c2nc(Sc3cnc(Oc4cccnc4)nc3)nc(N3CC(N)C3)c2c1Cl [700,561] | 32 µg/mL (≈ 70.3 µM) | 16 µg/mL (≈ 35.2 µM)
CCc1[nH]c2nc(Sc3ccc[n+]([O-])c3)nc(N3CC(N)C3)c2c1Cl [700,562] | 64 µg/mL (≈ 170 µM) | 16 µg/mL (≈ 42.5 µM)
CCc1[nH]c2nc(Sc3cnc4nccnc4c3)nc(N3CC4CCNC4C3)c2c1Cl.O=C(O)C(F)(F)F (stereo not shown) [700,563] | 2 µg/mL | 1 µg/mL
CCc1[nH]c2nc(Sc3cnc4nccnc4c3)nc(N3CCC4CNCC43)c2c1Cl.O=C(O)C(F)(F)F (stereo not shown) [700,564] | 16 µg/mL | 8 µg/mL
CCc1[nH]c2nc(Sc3cnc4nccnc4c3)nc(N3CC4CNCC4C3)c2c1Cl.O=C(O)C(F)(F)F (stereo not shown) [700,565] | 4 µg/mL | 2 µg/mL
CCc1[nH]c2nc(Sc3cnc4nccnc4c3)nc(N3CC4CNCC43)c2c1Cl.O=C(O)C(F)(F)F (stereo not shown) [700,566] | 64 µg/mL | > 64 µg/mL
CCc1[nH]c2nc(Sc3cnc4nccnc4c3)nc(N3CCC(NC)C3)c2c1Cl.O=C(O)C(F)(F)F (stereo not shown) [700,567] | 4 µg/mL | 7 µg/mL
CCc1[nH]c2nc(Sc3cnc4nccnc4c3)nc(N3C[C@H]4CCCN[C@H]4C3)c2c1Cl.O=C(O)C(F)(F)F [700,568] | 2 µg/mL | ≤ 0.5 µg/mL
CCc1[nH]c2nc(Sc3cnc4nccnc4c3)nc(N3CCCNCC3)c2c1Cl.O=C(O)C(F)(F)F [700,569] | 4 µg/mL | 8 µg/mL
CCc1[nH]c2nc(Sc3cnc4nccnc4c3)nc(N(C)C[C@@H](O)c3cccc(O)c3)c2c1Cl.O=C(O)C(F)(F)F [700,570] | 8 µg/mL | 1 µg/mL
CCc1[nH]c2nc(Sc3cnc4nccnc4c3)nc(N3CC4CN(C(=O)OC(C)(C)C)C4C3)c2c1Cl (stereo not shown) [700,571] | 8 µg/mL (≈ 14.8 µM) | 8 µg/mL (≈ 14.8 µM)
CCOc1nc(Nc2cnc3nccnc3c2)nc2[nH]c(CC)c(Br)c12.O=C(O)C(F)(F)F [700,572] | > 8 µg/mL | 4 µg/mL
CCc1[nH]c2nc(Nc3cnc4nccnc4c3)nc(N3CC(O)C3)c2c1Cl.O=C(O)C(F)(F)F [700,573] | > 64 µg/mL | > 64 µg/mL

Compound | MIC Spn52 (S. pneumoniae ATCC 51916) | MIC, SA (S. aureus ATCC 13709)
CCc1[nH]c2nc(Sc3cncnc3)nc(N3CC(N)C3)c2c1Cl [700,574] | 16 µg/mL (≈ 44.2 µM) | 4 µg/mL (≈ 11.1 µM)
CCc1[nH]c2nc(Sc3ccc4c(NCC(C)O)ncnc4c3)nc(N3CCC(N)C3)c2c1Cl (stereo not shown) [700,575] | 16 µg/mL (≈ 32.1 µM) | 8 µg/mL (≈ 16 µM)
CCc1[nH]c2nc(Sc3ccc4c(NC)ncnc4c3)nc(N3CCC(N)C3)c2c1Cl (stereo not shown) [700,576] | 16 µg/mL (≈ 35.2 µM) | 8 µg/mL (≈ 17.6 µM)
O=C(O)C(F)(F)F.OCCc1[nH]c2nc(Oc3cccnc3)nc(Oc3cncnc3)c2c1Cl [700,577] | > 64 µg/mL | > 64 µg/mL
CCc1[nH]c2nc(Oc3cncc(OC)c3)nc(Oc3cncc(OC)c3)c2c1Cl.O=C(O)C(F)(F)F [700,578] | 1 µg/mL | ≤ 0.5 µg/mL
C=CCc1nc(Cc2cccnc2)nc2[nH]c(CC)c(Cl)c12 [700,584] | 32 µg/mL (≈ 102 µM) | 8 µg/mL (≈ 25.6 µM)
CCc1[nH]c2nc(Cc3cccnc3)nc(N3CCC(CN)CC3)c2c1Cl [700,585] | > 64 µg/mL | > 64 µg/mL
CCc1[nH]c2nc(Cc3cccnc3)nc(N3CCC(C(C)N4CCOCC4)CC3)c2c1Cl (stereo not shown) [700,586] | > 64 µg/mL | > 64 µg/mL
CCc1[nH]c2nc(Cc3cccnc3)nc(N3CCC(N4CCOCC4)C3)c2c1Cl (stereo not shown) [700,587] | > 64 µg/mL | 64 µg/mL (≈ 150 µM)
CCc1[nH]c2nc(Sc3cnc4nccnc4c3)nc(N3CCC[C@@H](N)C3)c2c1Cl [700,588] | 8 µg/mL (≈ 18.1 µM) | 8 µg/mL (≈ 18.1 µM)
CCc1[nH]c2nc(Sc3cnc(N4CCC4)c(C#N)c3)nc(N3CCC(N)C3)c2c1Cl (stereo not shown) [700,589] | 8 µg/mL (≈ 17.6 µM) | 2 µg/mL (≈ 4.4 µM)
CCc1[nH]c2nc(Sc3cnc(N4CC(O)C4)c(C#N)c3)nc(N3CCC(N)C3)c2c1Cl (stereo not shown) [700,590] | 16 µg/mL (≈ 34 µM) | 4 µg/mL (≈ 8.49 µM)
CCc1[nH]c2nc(Oc3ccc(OC)nc3)nc(Oc3ccc(OC)nc3)c2c1Br.O=C(O)C(F)(F)F [700,591] | > 64 µg/mL | 2 µg/mL
CCc1[nH]c2nc(Oc3ccc(OC)nc3)nc(Oc3ccc(OC)nc3)c2c1Cl.O=C(O)C(F)(F)F [700,592] | 4 µg/mL | > 64 µg/mL
CCc1[nH]c2nc(Sc3cnc4nccnc4c3)nc(N3CC[C@@H](C)[C@@H](N)C3)c2c1Cl [700,595] | 8 µg/mL (≈ 17.6 µM) | 8 µg/mL (≈ 17.6 µM)
CCc1[nH]c2nc(Sc3ccc(S(=O)(=O)NCCN4CCOCC4)cc3)nc(N3CC(N)C3)c2c1Cl [700,596] | 32 µg/mL (≈ 58 µM) | 32 µg/mL (≈ 58 µM)
CCc1[nH]c2nc(Sc3ccc4c(N5CC(N)C5)ncnc4c3)nc(N3CCC(N)C3)c2c1Cl (stereo not shown) [700,597] | 16 µg/mL (≈ 32.3 µM) | 16 µg/mL (≈ 32.3 µM)
CCc1[nH]c2nc(Oc3cccnc3)nc(Oc3cccnc3)c2c1Br.O=C(O)C(F)(F)F [700,598] | 2 µg/mL | 1 µg/mL
CCc1[nH]c2nc(Nc3cnc4c(c3)nnn4C)nc(OC)c2c1Br.O=C(O)C(F)(F)F [700,599] | 2 µg/mL | ≤ 0.5 µg/mL
CCOc1nc(Nc2cnc3c(c2)nnn3C)nc2[nH]c(CC)c(Br)c12.O=C(O)C(F)(F)F [700,600] | > 8 µg/mL | > 8 µg/mL
